We go through 20 molecules from US20250346592A1 (Celgene Corporation, priority 2022, published 2025).

Experiment [1] has as its target T1, hPAD4 enzyme (Homo sapiens (Human), UniProt Q9UM07). In words: RFMS2 assay (RapidFire mass spectrometry, TSTGGRQGSHH peptide substrate). Format: biochemical. The settings on record: 35 nM recombinant human PAD4, 500 μM TSTGGRQGSHH peptide, 30 minutes at room temperature; read-out: RFMS 2 IC50. The gist of the method: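 Recombinant human PAD4 (35 nM) with 500 μM TSTGGRQGSHH peptide in HEPES pH 7.4, 200 mM NaCl, 2 mM CaCl2, 5 mM DTT, 1.2% DMSO, 30 min at room temperature; 3-fold compound series, top 20 μM. Quenched with formic acid; substrate and citrullinated product quantified by RapidFire MRM mass spectrometry for IC50.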

Experiment [2] addresses T1, hPAD4 enzyme. In words: RFMS1 assay (RapidFire mass spectrometry, BAEE substrate). It counts as biochemical. The settings on record: 5 nM hPAD4, 250 μM BAEE, 30 min preincubation at 37° C., 90 min reaction; read-out: RFMS 1 IC50. A digest of the protocol:
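hPAD4 (5 nM) preincubated 30 min at 37° C. with compound, then 250 μM BAEE for 90 min at 37° C. in pH 7.5 HEPES buffer with 50 μM calcium, 1 mM DTT, 5 μM TPEN. TCA quench, phenyl glyoxal derivatisation; citrulline product measured by RapidFire MS, normalised to internal standard; IC50 values.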

Each structure is given as a SMILES string. A value given as a limit tells only on which side of the number the result lay.

T1 sequence (Q9UM07 whole entry): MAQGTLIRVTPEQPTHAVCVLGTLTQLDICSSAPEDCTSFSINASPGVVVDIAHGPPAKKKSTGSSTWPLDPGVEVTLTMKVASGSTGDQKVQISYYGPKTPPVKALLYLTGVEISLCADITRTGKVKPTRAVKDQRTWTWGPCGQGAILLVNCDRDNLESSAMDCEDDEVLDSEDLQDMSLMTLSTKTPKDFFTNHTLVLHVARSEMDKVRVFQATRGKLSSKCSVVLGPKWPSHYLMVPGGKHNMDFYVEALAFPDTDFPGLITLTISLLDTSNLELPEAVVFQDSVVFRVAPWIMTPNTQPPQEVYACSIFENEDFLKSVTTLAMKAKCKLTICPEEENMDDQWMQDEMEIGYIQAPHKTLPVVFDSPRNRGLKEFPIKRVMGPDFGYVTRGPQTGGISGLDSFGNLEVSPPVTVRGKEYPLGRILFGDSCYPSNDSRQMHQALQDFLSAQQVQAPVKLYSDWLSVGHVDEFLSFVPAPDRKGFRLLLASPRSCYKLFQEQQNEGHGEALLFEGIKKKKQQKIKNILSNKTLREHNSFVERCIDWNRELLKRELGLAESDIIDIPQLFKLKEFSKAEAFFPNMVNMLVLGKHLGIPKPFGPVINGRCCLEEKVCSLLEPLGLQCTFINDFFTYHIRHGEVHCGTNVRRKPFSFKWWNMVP

For `Cn1c(-c2cc3cccc(OCCc4c[nH]nn4)c3n2CC2CC2)nc2cc3c(cc21)CCN(C[C@H](N)CF)C3=O` [Example 199, (S)-2-(7-(2-(1H-1,2,3-triazol-4-yl)ethoxy)-1-(cyclopropyl-methyl)-1H-indol-2-yl)-6-(2-amino-3-fluoropropyl)-1-methyl-1,6,7,8-tetrahydro-5H-imidazo[4,5-g]isoquinolin-5-one], the values for the IC50 at hPAD4 enzyme [1] and on hPAD4 enzyme [2] were 11 to 100 nM and not above 10 nM, respectively.

Turning to `COC(=O)N(C)CCOc1cccc2cc(-c3nc4cc5c(cc4n3C)CCN(C[C@H](N)CF)C5=O)n(CC3CC3)c12` [Example 201, methyl (S)-(2-((2-(6-(2-amino-3-fluoropropyl)-1-methyl-5-oxo-5,6,7,8-tetrahydro-1H-imidazo[4,5-g]isoquinolin-2-yl)-1-(cyclopropylmethyl)-1H-indol-7-yl)oxy)ethyl)(methyl) carbamate], the values for the IC50 on hPAD4 enzyme [1] and on hPAD4 enzyme [2] were 101 to 500 nM and not above 10 nM, respectively.

`Cn1c(-c2cc3cccc(OCCc4cnoc4)c3n2CC2CC2)nc2cc3c(cc21)CCN(C[C@H](N)CF)C3=O` [Example 204, (S)-6-(2-amino-3-fluoropropyl)-2-(1-(cyclopropylmethyl)-7-(2-(isoxazol-4-yl)ethoxy)-1H-indol-2-yl)-1-methyl-1,6,7,8-tetrahydro-5H-imidazo[4,5-g]isoquinolin-5-one]: the IC50 (commonly the midpoint of a concentration-inhibition curve) is 11 to 100 nM at hPAD4 enzyme [1] and not above 10 nM at hPAD4 enzyme [2].

Take `Cn1c(-c2cc3cccc(OCCO)c3n2CC2CC2)nc2cc3c(cc21)CCN(C[C@H](N)CF)C3=O` [Example 205, (S)-6-(2-amino-3-fluoropropyl)-2-(1-(cyclopropylmethyl)-7-(2-hydroxyethoxy)-1H-indol-2-yl)-1-methyl-1,6,7,8-tetrahydro-5H-imidazo[4,5-g]isoquinolin-5-one]: the IC50 fell in the range of 101 to 500 nM at hPAD4 enzyme [1] and 11 to 100 nM at hPAD4 enzyme [2].

For the molecule `Cn1c(-c2cc3cccc(OC[C@@H]4CNC(=O)O4)c3n2CC2CC2)nc2cc3c(cc21)CCN(C[C@H](N)CF)C3=O` [Example 206, (S)-5-(((2-(6-((S)-2-amino-3-fluoropropyl)-1-methyl-5-oxo-5,6,7,8-tetrahydro-1H-imidazo[4,5-g]isoquinolin-2-yl)-1-(cyclopropylmethyl)-1H-indol-7-yl)oxy)methyl)oxazolidin-2-one], the concentration for half-maximal inhibition (IC50) is 11 to 100 nM at hPAD4 enzyme [1] and not above 10 nM at hPAD4 enzyme [2].

For the molecule `COC(=O)NCCOc1cccc2cc(-c3nc4cc5c(cc4n3C)CCN(C[C@H](N)CF)C5=O)n(CC3CC3)c12` [Example 207, methyl (S)-(2-((2-(6-(2-amino-3-fluoropropyl)-1-methyl-5-oxo-5,6,7,8-tetrahydro-1H-imidazo[4,5-g]isoquinolin-2-yl)-1-(cyclopropylmethyl)-1H-indol-7-yl)oxy)ethyl)carbamate], the IC50 at hPAD4 enzyme [1] lay in the range of 101 to 500 nM; at hPAD4 enzyme [2], 11 to 100 nM.

Take `COC(=O)N[C@@H](C)COc1cccc2cc(-c3nc4cc5c(cc4n3C)CCN(C[C@H](N)CF)C5=O)n(CC3CC3)c12` [Example 208, methyl ((S)-1-((2-(6-((S)-2-amino-3-fluoropropyl)-1-methyl-5-oxo-5,6,7,8-tetrahydro-1H-imidazo[4,5-g]isoquinolin-2-yl)-1-(cyclopropylmethyl)-1H-indol-7-yl)oxy)propan-2-yl)carbamate]: the IC50 on hPAD4 enzyme [1] was 101 to 500 nM; on hPAD4 enzyme [2], 11 to 100 nM.

Regarding `Cn1c(-c2cc3cccc(OCCn4cnnc4)c3n2CC2CC2)nc2cc3c(cc21)CCN(C[C@H](N)CF)C3=O` [Example 210, (S)-2-(7-(2-(4H-1,2,4-triazol-4-yl)ethoxy)-1-(cyclopropyl-methyl)-1H-indol-2-yl)-6-(2-amino-3-fluoropropyl)-1-methyl-1,6,7,8-tetrahydro-5H-imidazo[4,5-g]isoquinolin-5-one], the IC50 on hPAD4 enzyme [1] and on hPAD4 enzyme [2] was 11 to 100 nM throughout.

Turning to `C[C@@H](COc1cccc2cc(-c3nc4cc5c(cc4n3C)CCN(C[C@H](N)CF)C5=O)n(CC3CC3)c12)n1ccnc1` [Example 212, 2-(7-((S)-2-(1H-imidazol-1-yl)propoxy)-1-(cyclopropylmethyl)-1H-indol-2-yl)-6-((S)-2-amino-3-fluoropropyl)-1-methyl-1,6,7,8-tetrahydro-5H-imidazo[4,5-g]isoquinolin-5-one], the IC50 was 11 to 100 nM at hPAD4 enzyme [1] and not above 10 nM at hPAD4 enzyme [2].

With `C[C@H](COc1cccc2cc(-c3nc4cc5c(cc4n3C)CCN(C[C@H](N)CF)C5=O)n(CC3CC3)c12)n1ccnc1` [Example 213, 2-(7-((R)-2-(1H-imidazol-1-yl)propoxy)-1-(cyclopropylmethyl)-1H-indol-2-yl)-6-((S)-2-amino-3-fluoropropyl)-1-methyl-1,6,7,8-tetrahydro-5H-imidazo[4,5-g]isoquinolin-5-one], the figures for the IC50 on hPAD4 enzyme [1] and on hPAD4 enzyme [2] were 101 to 500 nM and not above 10 nM, respectively.

As for `C[C@@H](Cn1ccnc1)Oc1cccc2cc(-c3nc4cc5c(cc4n3C)CCN(C[C@H](N)CF)C5=O)n(CC3CC3)c12` [Example 222, 2-(7-(((S)-1-(1H-imidazol-1-yl)propan-2-yl)oxy)-1-(cyclopropylmethyl)-1H-indol-2-yl)-6-((S)-2-amino-3-fluoropropyl)-1-methyl-1,6,7,8-tetrahydro-5H-imidazo[4,5-g]isoquinolin-5-one], the IC50 lay within 101 to 500 nM at hPAD4 enzyme [1] and 11 to 100 nM on hPAD4 enzyme [2].

In the case of `C[C@H](Cn1ccnc1)Oc1cccc2cc(-c3nc4cc5c(cc4n3C)CCN(C[C@H](N)CF)C5=O)n(CC3CC3)c12` [Example 223, 2-(7-(((R)-1-(1H-imidazol-1-yl)propan-2-yl)oxy)-1-(cyclopropylmethyl)-1H-indol-2-yl)-6-((S)-2-amino-3-fluoropropyl)-1-methyl-1,6,7,8-tetrahydro-5H-imidazo[4,5-g]isoquinolin-5-one], the IC50 on hPAD4 enzyme [1] was 101 to 500 nM; on hPAD4 enzyme [2] it was not above 10 nM.

With `Cn1c(-c2cc3cccc(/C=C/Cn4ccnc4)c3n2CC2CC2)nc2cc3c(cc21)CCN(C[C@H](N)CF)C3=O` [Example 227, (S,E)-2-(7-(3-(1H-imidazol-1-yl)prop-1-en-1-yl)-1-(cyclopropylmethyl)-1H-indol-2-yl)-6-(2-amino-3-fluoropropyl)-1-methyl-1,6,7,8-tetrahydro-5H-imidazo[4,5-g]isoquinolin-5-one], the results for the IC50 at hPAD4 enzyme [1] and at hPAD4 enzyme [2] were 11 to 100 nM and not above 10 nM, respectively.

For `Cn1c(-c2cc3cccc(CCCn4ccnc4)c3n2CC2CC2)nc2cc3c(cc21)CCN(C[C@H](N)CF)C3=O` [Example 228, (S)-2-(7-(3-(1H-imidazol-1-yl)propyl)-1-(cyclopropylmethyl)-1H-indol-2-yl)-6-(2-amino-3-fluoropropyl)-1-methyl-1,6,7,8-tetrahydro-5H-imidazo[4,5-g]isoquinolin-5-one], the IC50 at hPAD4 enzyme [1] is 101 to 500 nM; on hPAD4 enzyme [2], not above 10 nM.

Regarding `CN[C@H](C)CN1CCc2cc3c(cc2C1=O)nc(-c1cc2cccc(OCC4CNC(=O)C4)c2n1CC1CC1)n3C` (stereo partly drawn) [Example 229, 2-(1-(cyclopropylmethyl)-7-((5-oxopyrrolidin-3-yl)methoxy)-1H-indol-2-yl)-1-methyl-6-((R)-2-(methylamino)propyl)-1,6,7,8-tetrahydro-5H-imidazo[4,5-g]isoquinolin-5-one], the IC50 on hPAD4 enzyme [1] is 101 to 500 nM; at hPAD4 enzyme [2], 501 to 1000 nM.

Take `COc1cccc2cc(-c3nc4cc5c(cc4n3C)CCN(C[C@H]3COCCN3)C5=O)n(CC3CC3)c12` [Example 231, (S)-2-(1-(cyclopropylmethyl)-7-methoxy-1H-indol-2-yl)-1-methyl-6-(morpholin-3-ylmethyl)-1,6,7,8-tetrahydro-5H-imidazo[4,5-g]isoquinolin-5-one]: the IC50 at hPAD4 enzyme [1] was in the range of 501 to 1000 nM; on hPAD4 enzyme [2] it was 101 to 500 nM.

`COc1cccc2cc(-c3nc4cc5c(cc4n3C)CCN(C[C@H]3COCCN3)C5=O)n(Cc3ncco3)c12` [Example 232, (S)-2-(7-methoxy-1-(oxazol-2-ylmethyl)-1H-indol-2-yl)-1-methyl-6-(morpholin-3-ylmethyl)-1,6,7,8-tetrahydro-5H-imidazo[4,5-g]isoquinolin-5-one]: the IC50 at hPAD4 enzyme [1] and on hPAD4 enzyme [2] was 101 to 500 nM throughout.

Take `Cn1c(-c2cc3cccc(OCCn4cnnc4)c3n2CC2CC2)nc2cc3c(cc21)CCN(C[C@H]1COCCN1)C3=O` [Example 234, 2-[1-(cyclopropylmethyl)-7-[2-(1,2,4-triazol-4-yl)ethoxy]indol-2-yl]-1-methyl-6-[[(3S)-morpholin-3-yl]methyl]-7,8-dihydroimidazo[4,5-g]isoquinolin-5-one]: the IC50 lay in the range of 501 to 1000 nM on hPAD4 enzyme [1] and 11 to 100 nM on hPAD4 enzyme [2].

With `Cn1c(-c2cc3ccccc3n2CC2CC2)nc2cc3c(c(F)c21)CCN(C[C@H](N)CF)C3=O` [Example 236, (S)-6-(2-amino-3-fluoropropyl)-2-(1-(cyclopropylmethyl)-1H-indol-2-yl)-9-fluoro-1-methyl-1,6,7,8-tetrahydro-5H-imidazo[4,5-g]isoquinolin-5-one], the results for the IC50 at hPAD4 enzyme [1] and at hPAD4 enzyme [2] were 501 to 1000 nM and 101 to 500 nM, respectively.

Turning to `C[C@@H](N)CN1CCc2c(cc3nc(-c4cc5ccccc5n4CC4CC4)n(C)c3c2F)C1=O` [Example 237, (R)-6-(2-aminopropyl)-2-(1-(cyclopropylmethyl)-1H-indol-2-yl)-9-fluoro-1-methyl-1,6,7,8-tetrahydro-5H-imidazo[4,5-g]isoquinolin-5-one], the IC50 at hPAD4 enzyme [1] and on hPAD4 enzyme [2] was 101 to 500 nM in each case.
